ChEMBL document CHEMBL3886925, “Thieno- and furo[2,3-d]pyrimidine-2,4[1H,3H]-dione derivatives” (2016)

Target: T1, Short transient receptor potential channel 5 (Homo sapiens, UniProt Q9UL62)
T1 sequence (Q9UL62 whole entry): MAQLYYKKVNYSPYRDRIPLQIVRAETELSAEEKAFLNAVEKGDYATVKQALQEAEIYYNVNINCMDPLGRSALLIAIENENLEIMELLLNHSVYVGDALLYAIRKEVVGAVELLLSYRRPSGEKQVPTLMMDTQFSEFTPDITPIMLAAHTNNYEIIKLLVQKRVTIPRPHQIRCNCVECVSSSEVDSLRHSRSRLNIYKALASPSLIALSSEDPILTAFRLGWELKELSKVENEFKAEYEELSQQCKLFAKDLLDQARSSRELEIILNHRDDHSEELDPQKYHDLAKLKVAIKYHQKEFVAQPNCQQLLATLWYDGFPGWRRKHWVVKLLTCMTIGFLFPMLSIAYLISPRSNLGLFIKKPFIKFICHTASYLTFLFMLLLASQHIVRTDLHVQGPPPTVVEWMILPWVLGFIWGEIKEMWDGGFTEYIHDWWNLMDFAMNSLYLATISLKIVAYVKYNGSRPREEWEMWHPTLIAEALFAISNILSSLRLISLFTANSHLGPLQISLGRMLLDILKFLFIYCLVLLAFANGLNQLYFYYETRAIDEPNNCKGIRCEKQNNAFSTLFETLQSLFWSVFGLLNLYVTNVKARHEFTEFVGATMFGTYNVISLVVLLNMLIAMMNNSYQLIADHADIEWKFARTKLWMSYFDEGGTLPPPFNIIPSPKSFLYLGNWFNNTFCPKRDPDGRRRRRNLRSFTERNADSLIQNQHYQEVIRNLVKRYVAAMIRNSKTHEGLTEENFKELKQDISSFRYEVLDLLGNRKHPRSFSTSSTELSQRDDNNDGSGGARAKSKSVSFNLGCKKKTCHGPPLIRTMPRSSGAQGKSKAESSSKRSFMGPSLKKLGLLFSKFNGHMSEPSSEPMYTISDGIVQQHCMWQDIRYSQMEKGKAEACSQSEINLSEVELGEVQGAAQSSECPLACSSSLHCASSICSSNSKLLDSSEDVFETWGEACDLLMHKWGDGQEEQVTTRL
Experiment: High Throughput Screening Assay: The commercially available HEK293/TREx line (Invitrogen) was stably transfected with a TRPC5 construct and screened by conventional calcium imaging to find clones with TRPC5 expression following stimulation with 1 μg/ml tetracycline. These cells were maintained in the growth medium recommended by the manufacturer supplemented with 100 μg/ml hygromycin to promote retention of the TRPC5 construct. After growing to near confluency, cells were plated at a density of Ë¿35,000 cells/well in 384 well CellBind plates (Corning) in the presence of 1 μg/ml tetracycline, and allowed to grow for 20-30 hrs. A nearly confluent monolayer resulted. Cells were then loaded with Ca2+ dye: Fura-2/AM or Fluo4/AM was added to the wells to a final concentration of 4 μM or 0.5 μM, respectively, and incubated for 80 min or 60 min, respectively, at room temperature. Supernatant was then removed from the cells by inverting plates with a sharp flick, and 25 μl Hank's Balanced Salt Solution (HBSS; 0.185 g/l D-glucose, 0.9767 g/l MgS04 (anhydrous), 0.4 g/l KCl, 0.06 g/l KH2PO4 (anhydrous), 0.35 g/l NaHCO3, 8.0 g/l NaCl, and 0.04788 g/l Na2HPO4 (anhydrous); pH 7.4) was then added to each well. […]

| SMILES | IC50 |
| --- | --- |
| Cc1c(-c2cccc(Cl)c2Cl)sc2c1c(=O)n(CCCO)c(=O)n2C | 31.6 nM |
| Cn1c(=O)n(CCCO)c(=O)c2c(C(O)c3ccc(Cl)cc3)c(Oc3cccc(OC(F)(F)F)c3)sc21 (configuration not stated) | 194 nM |
